Measurements as given in the supplement of paper PMC11061612.

Experiments:
Carboplatin = compound: C1CC(C1)(C(=O)[O-])C(=O)[O-].N.N.[Pt+2] [Carboplatin]; conditions: max 10 µM
Summary of the method: (§1)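 Plates with 1536 wells received cancer cell lines in 7.5 μl of DMEM/F12 or RPMI containing 10% FBS. After 24 hours at 37°C and 5% CO2, cells were dosed for 72 hours with final DMSO typically 0.2%, and viability was read by CellTiter-Glo 2.0 luminescence scaled between blank-well and DMSO-well means. The single-agent IC50 was taken from a logistic fit of the dose responses made with a non-linear mixed effects model, that logistic curve having two parameters.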

AZD5363 = compound: C1CN(CCC1(C(=O)N[C@@H](CCO)C2=CC=C(C=C2)Cl)N)C3=NC=NC4=C3C=CN4 [AZD5363]; conditions: max 10 µM
Summary of the method: as §1

AZD1775 = compound: C=CCn1c(=O)c2cnc(Nc3ccc(N4CCN(C)CC4)cc3)nc2n1-c1cccc(C(C)(C)O)n1 [AZD1775]
Summary of the method: as §1

Trametinib = compound: CC(=O)Nc1cccc(-n2c(=O)n(C3CC3)c(=O)c3c(Nc4ccc(I)cc4F)n(C)c(=O)c(C)c32)c1 [Trametinib]; conditions: max 1 µM
Summary of the method: as §1

Paclitaxel = compound: CC(=O)O[C@H]1C(=O)[C@@]2(C)[C@H]([C@H](OC(=O)c3ccccc3)[C@]3(O)C[C@H](OC(=O)[C@H](O)[C@@H](NC(=O)c4ccccc4)c4ccccc4)C(C)=C1C3(C)C)[C@]1(OC(C)=O)CO[C@@H]1C[C@@H]2O [Paclitaxel]; conditions: max 3 µM
Summary of the method: as §1

Palbociclib = compound: CC(=O)c1c(C)c2cnc(Nc3ccc(N4CCNCC4)cn3)nc2n(C2CCCC2)c1=O [Palbociclib]; conditions: max 10 µM
Summary of the method: as §1

AZD1390 = compound: CC(C)n1c(=O)n(C)c2cnc3cc(F)c(-c4ccc(OCCCN5CCCCC5)nc4)cc3c21 [AZD1390]; conditions: max 0.3 µM
Summary of the method: as §1

Venetoclax = compound: CC1(C)CCC(CN2CCN(c3ccc(C(=O)NS(=O)(=O)c4ccc(NCC5CCOCC5)c([N+](=O)[O-])c4)c(Oc4cnc5[nH]ccc5c4)c3)CC2)=C(c2ccc(Cl)cc2)C1 [Venetoclax]; conditions: max 1 µM
Summary of the method: as §1

Dasatinib = compound: CC1=C(C(=CC=C1)Cl)NC(=O)C2=CN=C(S2)NC3=CC(=NC(=N3)C)N4CCN(CC4)CCO [Dasatinib]; conditions: max 2 µM
Summary of the method: as §1

SG3199 = compound: CC1=CN2[C@@H](C1)C=NC3=CC(=C(C=C3C2=O)OC)OCCCCCOC4=C(C=C5C(=C4)N=C[C@@H]6CC(=CN6C5=O)C)OC [SG3199]; conditions: max 0.001 µM
Summary of the method: as §1

AZD2811 = compound: CCN(CCO)CCCOc1ccc2c(Nc3cc(CC(=O)Nc4cccc(F)c4)[nH]n3)ncnc2c1 [AZD2811]; conditions: max 1 µM
Summary of the method: as §1

SN-38 = compound: CCc1c2c(nc3ccc(O)cc13)-c1cc3c(c(=O)n1C2)COC(=O)[C@]3(O)CC [SN-38]; conditions: max 0.3 µM
Summary of the method: as §1

AZD0156 = compound: CN(C)CCCOc1ccc(-c2ccc3ncc4c(c3c2)n(C2CCOCC2)c(=O)n4C)cn1 [AZD0156]
Summary of the method: as §1

AZD4320 = compound: CN(CC[C@H](CSC1=CC=CC=C1)NC2=C(C=C(C=C2)S(=O)(=O)NC(=O)C3=CC=C(C=C3)N4CCC(CC4)[C@H](C5=CC=CC=C5C6=CC=C(C=C6)Cl)O)S(=O)(=O)C(F)(F)F)CCO [AZD4320]; conditions: max 1 µM
Summary of the method: as §1

Alisertib = compound: COc1cc(Nc2ncc3c(n2)-c2ccc(Cl)cc2C(c2c(F)cccc2OC)=NC3)ccc1C(=O)O [Alisertib]; conditions: max 10 µM
Summary of the method: as §1

Etoposide = compound: COc1cc([C@@H]2c3cc4c(cc3[C@@H](O[C@@H]3O[C@@H]5CO[C@@H](C)O[C@H]5[C@H](O)[C@H]3O)[C@H]3COC(=O)[C@H]23)OCO4)cc(OC)c1O [Etoposide]; conditions: max 10 µM
Summary of the method: as §1

Gefitinib = compound: COc1cc2ncnc(Nc3ccc(F)c(Cl)c3)c2cc1OCCCN1CCOCC1 [Gefitinib]; conditions: max 10 µM
Summary of the method: as §1

Prexasertib = compound: COc1cccc(OCCCN)c1-c1cc(Nc2cnc(C#N)cn2)n[nH]1 [Prexasertib]; conditions: max 1 µM
Summary of the method: as §1

Doxorubicin = compound: COc1cccc2c1C(=O)c1c(O)c3c(c(O)c1C2=O)C[C@@](O)(C(=O)CO)C[C@@H]3O[C@H]1C[C@H](N)[C@H](O)[C@H](C)O1 [Doxorubicin]; conditions: max 1 µM
Summary of the method: as §1

AZD5153 = compound: COc1nnc2ccc(N3CCC(c4ccc(OCCN5CCN(C)C(=O)[C@H]5C)cc4)CC3)nn12 [AZD5153]; conditions: max 1 µM
Summary of the method: as §1

Lapatinib = compound: CS(=O)(=O)CCNCc1ccc(-c2ccc3ncnc(Nc4ccc(OCc5cccc(F)c5)c(Cl)c4)c3c2)o1 [Lapatinib]; conditions: max 10 µM
Summary of the method: as §1

AZD8186 = compound: C[C@@H](Nc1cc(F)cc(F)c1)c1cc(C(=O)N(C)C)cc2c(=O)cc(N3CCOCC3)oc12 [AZD8186]; conditions: max 10 µM
Summary of the method: as §1

Crizotinib = compound: C[C@@H](Oc1cc(-c2cnn(C3CCNCC3)c2)cnc1N)c1c(Cl)ccc(F)c1Cl [Crizotinib]; conditions: max 10 µM
Summary of the method: as §1

Savolitinib = compound: C[C@@H](c1ccc2nccn2c1)n1nnc2ncc(-c3cnn(C)c3)nc21 [Savolitinib]; conditions: max 1 µM
Summary of the method: as §1

AZD6738 = compound: C[C@@H]1COCCN1C2=NC(=NC(=C2)C3(CC3)[S@](=N)(=O)C)C4=C5C=CNC5=NC=C4 [AZD6738]; conditions: max 10 µM
Summary of the method: as §1

AZD5991 = compound: Cc1c2c(nn1C)CSCc1cc(n(C)n1)CSc1cc(c3ccccc3c1)OCCCc1c(C(=O)O)n(C)c3c-2c(Cl)ccc13 [AZD5991]; conditions: max 1 µM
Summary of the method: as §1

AZD7648 = compound: Cc1cc2ncnn2cc1Nc1ncc2c(n1)n(C1CCOCC1)c(=O)n2C [AZD7648]; conditions: max 10 µM
Summary of the method: as §1

Taselisib = compound: Cc1nc(-c2cn3c(n2)-c2ccc(-c4cnn(C(C)(C)C(N)=O)c4)cc2OCC3)n(C(C)C)n1 [Taselisib]; conditions: max 10 µM
Summary of the method: as §1

Selumetinib = compound: Cn1cnc2c(F)c(Nc3ccc(Br)cc3Cl)c(C(=O)NOCCO)cc21 [Selumetinib]; conditions: max 10 µM
Summary of the method: as §1

SRA737 = compound: N#Cc1cnc(Nc2cc(NC[C@H]3CNCCO3)c(C(F)(F)F)cn2)cn1 [SRA737]; conditions: max 10 µM
Summary of the method: as §1

MK-2206 = compound: NC1(c2ccc(-c3nc4ccn5c(=O)[nH]nc5c4cc3-c3ccccc3)cc2)CCC1 [MK-2206]; conditions: max 10 µM
Summary of the method: as §1

Gemcitabine = compound: Nc1ccn([C@@H]2O[C@H](CO)[C@@H](O)C2(F)F)c(=O)n1 [Gemcitabine]; conditions: max 0.3 µM
Summary of the method: as §1

[1] = compound: O=C(Nc1ccc2[nH]nc(-c3ccncc3)c2c1)[C@@H]1CCN(CC(=O)N2CCN(c3ccc(-c4ncccn4)cc3)CC2)C1; conditions: max 5 µM
Summary of the method: as §1

Olaparib = compound: O=C(c1cc(Cc2n[nH]c(=O)c3ccccc23)ccc1F)N1CCN(C(=O)C2CC2)CC1 [Olaparib]; conditions: max 10 µM
Summary of the method: as §1

5-Fluorouracil = compound: O=c1[nH]cc(F)c(=O)[nH]1 [5-Fluorouracil]; conditions: max 20 µM
Summary of the method: as §1

Cell Line	IC50, cell viability 72 h (Carboplatin) [µM]	IC50, cell viability 72 h (AZD5363) [µM]	IC50, cell viability 72 h (AZD1775; max 3 µM) [µM]	IC50, cell viability 72 h (Trametinib) [µM]	IC50, cell viability 72 h (Paclitaxel) [µM]	IC50, cell viability 72 h (Palbociclib) [µM]	IC50, cell viability 72 h (AZD1390) [µM]	IC50, cell viability 72 h (Venetoclax) [µM]	IC50, cell viability 72 h (Dasatinib) [µM]	IC50, cell viability 72 h (SG3199) [µM]	IC50, cell viability 72 h (AZD2811) [µM]	IC50, cell viability 72 h (SN-38) [µM]	IC50, cell viability 72 h (AZD0156; max 3 µM) [µM]	IC50, cell viability 72 h (AZD4320) [µM]	IC50, cell viability 72 h (Alisertib) [µM]	IC50, cell viability 72 h (Etoposide) [µM]	IC50, cell viability 72 h (Gefitinib) [µM]	IC50, cell viability 72 h (Prexasertib) [µM]	IC50, cell viability 72 h (Doxorubicin) [µM]	IC50, cell viability 72 h (AZD5153) [µM]	IC50, cell viability 72 h (Lapatinib) [µM]	IC50, cell viability 72 h (AZD8186) [µM]	IC50, cell viability 72 h (Crizotinib) [µM]	IC50, cell viability 72 h (Savolitinib) [µM]	IC50, cell viability 72 h (AZD6738) [µM]	IC50, cell viability 72 h (AZD5991) [µM]	IC50, cell viability 72 h (AZD7648) [µM]	IC50, cell viability 72 h (Taselisib) [µM]	IC50, cell viability 72 h (Selumetinib) [µM]	IC50, cell viability 72 h (SRA737) [µM]	IC50, cell viability 72 h (MK-2206) [µM]	IC50, cell viability 72 h (Gemcitabine) [µM]	IC50, cell viability 72 h [1] [µM]	IC50, cell viability 72 h (Olaparib) [µM]	IC50, cell viability 72 h (5-Fluorouracil) [µM]	IC50, cell viability 72 h (AZD1775; max 1 µM) [µM]	IC50, cell viability 72 h (AZD0156; max 1 µM) [µM]
SKN (Other Solid Carcinomas)	> 10	5.64	> 3	> 1	0.0953	> 10	> 0.3	> 1	0.179	> 0.001	> 1	> 0.3	> 3	> 1	> 10	> 10	> 10	> 1	> 1	0.446	> 10	1.84	> 10	> 1	> 10	> 1	> 10	2.87	> 10	> 10	> 10	> 0.3	> 5	> 10	> 20	–	–
MV-4-11 (Acute Myeloid Leukemia)	> 10	4.43	–	0.0703	0.00397	1	> 0.3	0.00799	> 2	> 0.001	0.0206	0.00299	–	0.00174	0.0355	0.149	4.16	0.0171	0.0331	0.0242	> 10	> 10	1.88	> 1	0.994	0.0059	> 10	7.86	3.35	1.29	7.87	0.00343	1.35	> 10	0.939	0.503	> 1
SK-LU-1 (Lung Adenocarcinoma)	> 10	> 10	1.15	> 1	> 3	> 10	> 0.3	> 1	> 2	–	> 1	0.145	> 3	> 1	–	> 10	> 10	–	–	> 1	> 10	> 10	> 10	> 1	> 10	> 1	> 10	> 10	> 10	> 10	> 10	> 0.3	> 5	> 10	> 20	–	–
